US10435398B2, “Oxazole orexin receptor antagonists” (MERCK SHARP & DOHME CORP., priority 2014, dated 2019)

Key:
human orexin-1 receptor = human orexin-1 receptor (Homo sapiens (Human), UniProt O43613); experiment: FLIPR Ca2+ Flux Assay, hOX1R; assay type: cell-based; settings: CHO cells expressing human orexin-1 receptor; agonist 70 pM Ala-6,12 human orexin-A
Procedure: (§1) The utility of the compounds in accordance with the present invention as orexin receptor OX1R and/or OX2R antagonists may be readily determined without undue experimentation by methodology well known in the art, including the “FLIPR Ca^2+ Flux Assay” (Okumura et al., Biochem. Biophys. Res. Comm. 280:976-981, 2001). In a typical experiment the OX1 and OX2 receptor antagonistic activity of the compounds of the present invention was determined in accordance with the following experimental method. For intracellular calcium measurements, Chinese hamster ovary (CHO) cells expressing the rat or human orexin-1 receptor or the human orexin-2 receptor, are grown in Iscove's modified DMEM containing 2 mM L-glutamine, […], 1% hypoxanthine-thymidine supplement, 100 U/ml penicillin, 100 μg/ml streptomycin and 10% heat-inactivated fetal calf serum (FCS). The cells are seeded at 20,000 cells/well into Becton-Dickinson black 384-well clear bottom sterile plates coated with poly-D-lysine. All reagents were from GIBCO-Invitrogen Corp. The seeded plates are incubated overnight at 37° C. and 5% CO2. Ala-6,12 human orexin-A as the agonist is prepared as a 1 mM stock solution in 1% bovine serum albumin (BSA) and diluted in assay buffer (HBSS containing 20 mM HEPES, 0.1% BSA and 2.5 mM probenecid, pH7.4) for use in the assay at a final concentration of 70 pM. Test compounds are prepared as 10 mM stock solution in DMSO, then diluted in 384-well plates, first in DMSO, then assay buffer. On the day of the assay, cells are washed 3 times with 100 μl assay buffer and then incubated for 60 min (37° C., 5% CO2) in 60 μl assay buffer containing 1 μM Fluo-4AM ester, 0.02% pluronic acid, and 1% BSA. The dye loading solution is then aspirated and cells are washed 3 times with 100 μl assay buffer. 30 μl of that same buffer is left in each well. Within the Fluorescent Imaging Plate Reader (FLIPR, Molecular Devices), test compounds are added to the plate in a volume of 25 μl, incubated for 5 min and finally 25 μl of agonist is added. Fluorescence is measured for each well at 1 second intervals for 5 minutes and the height of each fluorescence peak is compared to the height of the fluorescence peak induced by 70 pM Ala-6,12 orexin-A with buffer in place of antagonist. For each antagonist, IC50 value (the concentration of compound needed to inhibit 50% of the agonist response) is determined. Alternatively, compound potency can be assessed by a radioligand binding assay (described in Bergman et. al. Bioorg. Med. Chem. Lett. 2008, 18, 1425-1430) in which the inhibition constant (Ki) is determined in membranes prepared from CHO cells expressing either the OX1 or OX2 receptor. The intrinsic orexin receptor antagonist activity of a compound which may be used in the present invention may be determined by these assays.

human orexin-2 receptor = human orexin-2 receptor (Homo sapiens (Human), UniProt O43614); experiment: FLIPR Ca2+ Flux Assay, hOX2R; assay type: cell-based; settings: CHO cells expressing human orexin-2 receptor; agonist 70 pM Ala-6,12 human orexin-A
Procedure: as §1

Sequence of human orexin-1 receptor (O43613 whole entry): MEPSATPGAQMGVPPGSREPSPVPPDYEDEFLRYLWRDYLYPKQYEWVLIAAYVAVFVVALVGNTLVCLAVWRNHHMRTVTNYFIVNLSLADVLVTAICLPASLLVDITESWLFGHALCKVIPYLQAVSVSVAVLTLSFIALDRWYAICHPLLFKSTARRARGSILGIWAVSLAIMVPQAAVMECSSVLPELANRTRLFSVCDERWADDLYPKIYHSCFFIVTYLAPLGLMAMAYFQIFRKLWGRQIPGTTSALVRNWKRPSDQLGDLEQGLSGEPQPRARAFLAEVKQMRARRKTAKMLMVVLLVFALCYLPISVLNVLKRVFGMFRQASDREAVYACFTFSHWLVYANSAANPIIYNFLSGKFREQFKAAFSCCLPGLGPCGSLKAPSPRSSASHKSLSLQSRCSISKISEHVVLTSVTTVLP
Sequence of human orexin-2 receptor (O43614 whole entry): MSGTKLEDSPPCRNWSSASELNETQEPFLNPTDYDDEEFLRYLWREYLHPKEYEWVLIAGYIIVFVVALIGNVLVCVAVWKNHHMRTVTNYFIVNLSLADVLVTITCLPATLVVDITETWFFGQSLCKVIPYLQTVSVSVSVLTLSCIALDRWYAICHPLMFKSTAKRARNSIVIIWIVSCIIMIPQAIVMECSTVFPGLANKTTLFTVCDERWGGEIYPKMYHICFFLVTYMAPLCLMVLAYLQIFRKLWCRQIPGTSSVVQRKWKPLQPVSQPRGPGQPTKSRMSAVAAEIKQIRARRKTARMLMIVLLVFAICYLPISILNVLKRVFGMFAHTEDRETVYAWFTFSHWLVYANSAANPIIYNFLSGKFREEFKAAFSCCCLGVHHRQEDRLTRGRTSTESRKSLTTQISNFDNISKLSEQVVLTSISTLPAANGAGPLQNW

SMILES | IC50 (human orexin-1 receptor) | IC50 (human orexin-2 receptor)
Cc1oc(CCN(CC2CC2)C(=O)c2ccccc2-n2nccn2)nc1C(C)(C)O [Example 23, N-(Cyclopropylmethyl)-N-{2-[4-(1-hydroxy-1-methylethyl)-5-methyl-1,3-oxazol-2-yl]ethyl}-2-(2H-1,2,3-triazol-2-yl)benzamide] | 2840 nM | 21 nM
CCN(CCc1nc(C(C)(C)O)c(C)o1)C(=O)c1ccsc1-n1nccn1 [Example 12, N-Ethyl-N-{2-[4-(1-hydroxy-1-methylethyl)-5-methyl-1,3-oxazol-2-yl]ethyl}-2-(2H-1,2,3-triazol-2-yl)thiophene-3-carboxamide] | > 10000 nM | 63 nM
Cc1oc(CCN(CCO)C(=O)c2ccccc2-n2nccn2)nc1C(C)(C)O [Example 28, N-(2-hydroxyethyl)-N-(2-(4-(2-hydroxypropan-2-yl)-5-methyloxazol-2-yl)ethyl)-2-(2H-1,2,3-triazol-2-yl)benzamide] | > 10000 nM | 98 nM
Cc1oc(CCN(CCCO)C(=O)c2ccccc2-n2nccn2)nc1C(C)(C)O [Example 27, N-{2-[4-(1-Hydroxy-1-methylethyl)-5-methyl-1,3-oxazol-2-yl]ethyl}-N-(3-hydroxypropyl)-2-(2H-1,2,3-triazol-2-yl)benzamide] | > 10000 nM | 304 nM
CCN(CCc1nc(C(C)(C)O)c(C)o1)C(=O)c1ccccc1-n1ncnn1 [Example 9, N-ethyl-N-{2-[4-(1-hydroxy-1-methylethyl)-5-methyl-1,3-oxazol-2-yl]ethyl}-2-(2H-tetrazol-2-yl)benzamide] | > 10000 nM | 491 nM
CCN(CCc1nc(C(C)(C)O)c(C)o1)C(=O)c1cccnc1OCC(F)F [Example 10, 2-(2,2-difluoroethoxy)-N-ethyl-N-{2-[4-(1-hydroxy-1-methylethyl)-5-methyl-1,3-oxazol-2-yl]ethyl}pyridine-3-carboxamide] | > 10000 nM | 224 nM
CCN(CCc1nc(C(C)(C)O)c(C)o1)C(=O)c1sccc1-n1nccn1 [Example 10d, N-ethyl-N-{2-[4-(1-hydroxy-1-methylethyl)-5-methyl-1,3-oxazol-2-yl]ethyl}-3-(2H-1,2,3-triazol-2-yl)thiophene-2-carboxamide] | > 10000 nM | 435 nM
CCN(CCc1nc(C(C)(C)O)c(C)o1)C(=O)c1cccnc1-n1cccn1 [Example 6, N-Ethyl-N-{2-[4-(1-hydroxy-1-methylethyl)-5-methyl-1,3-oxazol-2-yl]ethyl}-2-(1H-pyrazol-1-yl)pyridine-3-carboxamide] | > 10000 nM | 101 nM
CCN(CCc1nc(C(C)(C)O)c(C)o1)C(=O)c1ccc(F)cc1-n1nccn1 [Example 4, N-Ethyl-4-fluoro-N-{2-[4-(1-hydroxy-1-methylethyl)-5-methyl-1,3-oxazol-2-yl]ethyl}-2-(2H-1,2,3-triazol-2-yl)benzamide] | > 10000 nM | 48 nM
CCN(CCc1nc(C(C)(C)O)c(C)o1)C(=O)c1ccccc1-n1cccn1 [Example 17, N-Ethyl-N-{2-[4-(1-hydroxy-1-methylethyl)-5-methyl-1,3-oxazol-2-yl]ethyl}-2-(1H-pyrazol-1-yl)benzamide] | > 10000 nM | 292 nM
Cc1oc(CCN(C(=O)c2ccccc2-n2nccn2)C2CC2)nc1C(C)(C)O [Example 31, N-Cyclopropyl-N-(2-(4-(2-hydroxypropan-2-yl)-5-methyloxazol-2-yl)ethyl)-2-(2H-1,2,3-triazol-2-yl)benzamide] | 7590 nM | 42 nM
CCN(CCc1nc(C(C)(C)O)c(C)o1)C(=O)c1ccccc1C1(C#N)CC1 [Example 10b, 2-(1-cyanocyclopropyl)-N-ethyl-N-{2-[4-(1-hydroxy-1-methylethyl)-5-methyl-1,3-oxazol-2-yl]ethyl}benzamide] | 1760 nM | 26 nM
CCN(CCc1nc(C(C)(C)O)c(C)o1)C(=O)c1ccccc1-c1ccccc1 [Example 1, N-Ethyl-N-(2-(4-(2-hydroxypropan-2-yl)-5-methyloxazol-2-yl)ethyl)-[1,1′-biphenyl]-2-carboxamide] | 1830 nM | 29 nM
Cc1oc(CCN(CC(F)F)C(=O)c2ccccc2-n2nccn2)nc1C(C)(C)O [Example 24, N-(2,2-Difluoroethyl)-N-{2-[4-(1-hydroxy-1-methylethyl)-5-methyl-1,3-oxazol-2-yl]ethyl}-2-(2H-1,2,3-triazol-2-yl)benzamide] | > 10000 nM | 68 nM
CCCN(CCc1nc(C(C)(C)O)c(C)o1)C(=O)c1ccccc1-n1nccn1 [Example 22, N-{2-[4-(1-Hydroxy-1-methylethyl)-5-methyl-1,3-oxazol-2-yl]ethyl}-N-propyl-2-(2H-1,2,3-triazol-2-yl)benzamide] | 2370 nM | 19 nM
COCCN(CCc1nc(C(C)(C)O)c(C)o1)C(=O)c1ccccc1-n1nccn1 [Example 29, N-(2-(4-(2-Hydroxypropan-2-yl)-5-methyloxazol-2-yl)ethyl)-N-(2-methoxyethyl)-2-(2H-1,2,3-triazol-2-yl)benzamide] | > 10000 nM | 19 nM
Cc1oc(CCN(C)C(=O)c2ccccc2-n2nccn2)nc1C(C)(C)O [Example 30, N-(2-(4-(2-Hydroxypropan-2-yl)-5-methyloxazol-2-yl)ethyl)-N-methyl-2-(2H-1,2,3-triazol-2-yl)benzamide] | > 10000 nM | 390 nM
CCN(CCc1nc(C(C)(C)O)c(C)o1)C(=O)c1cccnc1OCC(F)(F)F [Example 13, N-Ethyl-N-{2-[4-(1-hydroxy-1-methylethyl)-5-methyl-1,3-oxazol-2-yl]ethyl}-2-(2,2,2-trifluoroethoxy)pyridine-3-carboxamide] | > 10000 nM | 98 nM
COCCCN(CCc1nc(C(C)(C)O)c(C)o1)C(=O)c1ccccc1-n1nccn1 [Example 33, N-(2-(4-(2-Hydroxypropan-2-yl)-5-methyloxazol-2-yl)ethyl)-N-(3-methoxypropyl)-2-(2H-1,2,3-triazol-2-yl)benzamide] | > 10000 nM | 119 nM
C=CCN(CCc1nc(C(C)(C)O)c(C)o1)C(=O)c1ccccc1-n1nccn1 [Example 21, N-{2-[4-(1-Hydroxy-1-methylethyl)-5-methyl-1,3-oxazol-2-yl]ethyl}-N-prop-2-en-1-yl-2-(2H-1,2,3-triazol-2-yl)benzamide] | 1010 nM | 19 nM
CCN(CCc1nc(C(C)(C)O)c(C)o1)C(=O)c1ccccc1-n1nccn1 [Example 11, N-Ethyl-N-{2-[4-(1-hydroxy-1-methylethyl)-5-methyl-1,3-oxazol-2-yl]ethyl}-2-(2H-1,2,3-triazol-2-yl)benzamide] | 2590 nM | 27 nM
CCN(CCc1nc(C(C)(C)O)c(C)o1)C(=O)c1ccccc1-c1nc(C)no1 [Example 10c, N-ethyl-N-{2-[4-(1-hydroxy-1-methylethyl)-5-methyl-1,3-oxazol-2-yl]ethyl}-2-(3-methyl-1,2,4-oxadiazol-5-yl)benzamide] | > 10000 nM | 212 nM
CCN(CCc1nc(C(C)(O)CC)c(C)o1)C(=O)c1ccccc1-n1nccn1 (stereo not shown) [Example 19, N-Ethyl-N-{2-[4-(1-hydroxy-1-methylpropyl)-5-methyl-1,3-oxazol-2-yl]ethyl}-2-(2H-1,2,3-triazol-2-yl)benzamide] | 3380 nM | 12 nM
Cc1oc(CCN(C(=O)c2ccccc2-n2nccn2)C(C)C)nc1C(C)(C)O [Example 25, N-{2-[4-(1-Hydroxy-1-methylethyl)-5-methyl-1,3-oxazol-2-yl]ethyl}-N-(1-methylethyl)-2-(2H-1,2,3-triazol-2-yl)benzamide] | > 10000 nM | 152 nM
CCN(CCc1nc(C(C)(C)O)c(C)o1)C(=O)c1ccccc1CC(F)(F)F [Example 14, N-Ethyl-N-{2-[4-(1-hydroxy-1-methylethyl)-5-methyl-1,3-oxazol-2-yl]ethyl}-2-(2,2,2-trifluoroethyl)benzamide] | > 10000 nM | 211 nM
CCN(CCc1nc(C(C)(C)O)c(C)o1)C(=O)c1cc(F)ccc1-n1nccn1 [Example 7, N-Ethyl-5-fluoro-N-{2-[4-(1-hydroxy-1-methylethyl)-5-methyl-1,3-oxazol-2-yl]ethyl}-2-(2H-1,2,3-triazol-2-yl)benzamide] | > 10000 nM | 62 nM
